Laboratory results as given in PMC11129975, “A first-in-human phase I study of TAS-117, an allosteric AKT inhibitor, in patients with advanced solid tumors” (Cancer Chemotherapy and Pharmacology, 2024).

Columns and labels:
AKT = test: Ratio of pPRAS40/total PRAS40 in platelet-rich plasma (electrochemiluminescence); type: in vivo, human; conditions: at any time point; DEP, RMP and SAP; dose levels 2 to 5 (8 to 32 mg/body/day)
Description: Blood samples for pharmacokinetic analysis were collected immediately prior to dosing (0 h) and at 0.5, 1, 2, 3, 4, 6, 8, 12, and 24 h post-dose on Day 1 and Day 21 of Cycle 1 for patients in the DEP (QD dosing). For patients who received intermittent dosing regimens, blood was collected immediately prior to dosing (0 h) and at 1, 2, 3, 4, 6, 8, 10, and 24 h post-dose on Cycle 1 Day 1; immediately prior to dosing (0 h) on Cycle 1 Days 3, 4, and 8; and immediately prior to dosing (0 h) and at 1, 2, 3, 4, 6, 8, 10, 24, 48, and 96 h post-dose on Cycle 1 Day 18. […]
The pharmacodynamic activity of TAS-117 for AKT inhibition was evaluated by the change in the ratio of pPRAS40 (threonine 246) to total PRAS40 in platelet-rich plasma samples before and after TAS-117 administration. The phosphorylation status of PRAS40 in the blood was measured with an electrochemiluminescence detection assay using a Meso Scale Discovery instrument (Meso Scale Diagnostics, Rockville, MD, US). For efficacy, solid tumors were assessed using Response Evaluation Criteria in Solid Tumors (RECIST; version 1.1). Computed tomography scans were evaluated at baseline, every 6 weeks after initiating TAS-117 administration, and at the time of study discontinuation.

[1] = tested on: advanced or metastatic solid tumors; test: Antitumor activity, best overall response by RECIST version 1.1; type: in vivo, human
Description: The phosphorylation status of PRAS40 in the blood was measured with an electrochemiluminescence detection assay using a Meso Scale Discovery instrument (Meso Scale Diagnostics, Rockville, MD, US). For efficacy, solid tumors were assessed using Response Evaluation Criteria in Solid Tumors (RECIST; version 1.1).

[2] = RMP (intermittent dosing) Level 4 (24 mg) n = 6
[3] = RMP (intermittent dosing) Level 5 (32 mg) n = 4
[4] = SAP (intermittent dosing) Cohort 1 Level 4 n = 16
[5] = SAP (intermittent dosing) Cohort 2 Level 4 n = 7
[6] = SAP (intermittent dosing) Cohort 3 Level 4 n = 20

C[C@]1(O)C[C@@](N)(c2ccc(-c3nc4n(c3-c3ccccc3)COc3ccncc3-4)cc2)C1 [TAS-117]
Reduction in the level of pPRAS40 (AKT): > 50% | Best overall response: CR ([1]; DEP (QD) Level 1 (4 mg) n = 2): 0 n (%) | Best overall response: NE ([1]; DEP (QD) Level 1 (4 mg) n = 2): 0 n (%) | Best overall response: Non-CR/non-PD ([1]; DEP (QD) Level 1 (4 mg) n = 2): 0 n (%) | Best overall response: PD ([1]; DEP (QD) Level 1 (4 mg) n = 2): 2 (100.0) n (%) | Best overall response: PR ([1]; DEP (QD) Level 1 (4 mg) n = 2): 0 n (%) | Best overall response: SD ([1]; DEP (QD) Level 1 (4 mg) n = 2): 0 n (%) | DCR (CR + PR + SD + non-CR/non-PD) ([1]; DEP (QD) Level 1 (4 mg) n = 2): 0 n (%) | RR (CR + PR) ([1]; DEP (QD) Level 1 (4 mg) n = 2): 0 n (%) | Best overall response: CR ([1]; DEP (QD) Level 2 (8 mg) n = 1): 0 n (%) | Best overall response: NE ([1]; DEP (QD) Level 2 (8 mg) n = 1): 0 n (%) | Best overall response: Non-CR/non-PD ([1]; DEP (QD) Level 2 (8 mg) n = 1): 0 n (%) | Best overall response: PD ([1]; DEP (QD) Level 2 (8 mg) n = 1): 0 n (%) | Best overall response: PR ([1]; DEP (QD) Level 2 (8 mg) n = 1): 0 n (%) | Best overall response: SD ([1]; DEP (QD) Level 2 (8 mg) n = 1): 1 (100.0) n (%) | DCR (CR + PR + SD + non-CR/non-PD) ([1]; DEP (QD) Level 2 (8 mg) n = 1): 1 (100.0) n (%) | RR (CR + PR) ([1]; DEP (QD) Level 2 (8 mg) n = 1): 0 n (%) | Best overall response: CR ([1]; DEP (QD) Level 3 (16 mg) n = 6): 0 n (%) | Best overall response: NE ([1]; DEP (QD) Level 3 (16 mg) n = 6): 0 n (%) | Best overall response: Non-CR/non-PD ([1]; DEP (QD) Level 3 (16 mg) n = 6): 0 n (%) | Best overall response: PD ([1]; DEP (QD) Level 3 (16 mg) n = 6): 6 (100.0) n (%) | Best overall response: PR ([1]; DEP (QD) Level 3 (16 mg) n = 6): 0 n (%) | Best overall response: SD ([1]; DEP (QD) Level 3 (16 mg) n = 6): 0 n (%) | DCR (CR + PR + SD + non-CR/non-PD) ([1]; DEP (QD) Level 3 (16 mg) n = 6): 0 n (%) | RR (CR + PR) ([1]; DEP (QD) Level 3 (16 mg) n = 6): 0 n (%) | Best overall response: CR ([1]; DEP (QD) Level 4 (24 mg) n = 3): 0 n (%) | Best overall response: NE ([1]; DEP (QD) Level 4 (24 mg) n = 3): 0 n (%) | Best overall response: Non-CR/non-PD ([1]; DEP (QD) Level 4 (24 mg) n = 3): 0 n (%) | Best overall response: PD ([1]; DEP (QD) Level 4 (24 mg) n = 3): 2 (66.7) n (%) | Best overall response: PR ([1]; DEP (QD) Level 4 (24 mg) n = 3): 0 n (%) | Best overall response: SD ([1]; DEP (QD) Level 4 (24 mg) n = 3): 1 (33.3) n (%) | DCR (CR + PR + SD + non-CR/non-PD) ([1]; DEP (QD) Level 4 (24 mg) n = 3): 1 (33.3) n (%) | RR (CR + PR) ([1]; DEP (QD) Level 4 (24 mg) n = 3): 0 n (%) | Best overall response: CR [1, 2]: 0 n (%) | Best overall response: NE [1, 2]: 0 n (%) | Best overall response: Non-CR/non-PD [1, 2]: 0 n (%) | Best overall response: PD [1, 2]: 4 (66.7) n (%) | Best overall response: PR [1, 2]: 0 n (%) | Best overall response: SD [1, 2]: 2 (33.3) n (%) | DCR (CR + PR + SD + non-CR/non-PD) [1, 2]: 2 (33.3) n (%) | RR (CR + PR) [1, 2]: 0 n (%) | Best overall response: CR [1, 3]: 0 n (%) | Best overall response: NE [1, 3]: 0 n (%) | Best overall response: Non-CR/non-PD [1, 3]: 0 n (%) | Best overall response: PD [1, 3]: 4 (100.0) n (%) | Best overall response: PR [1, 3]: 0 n (%) | Best overall response: SD [1, 3]: 0 n (%) | DCR (CR + PR + SD + non-CR/non-PD) [1, 3]: 0 n (%) | RR (CR + PR) [1, 3]: 0 n (%) | Patients with confirmed partial response ([1]; SAP): Four patients | Best overall response: CR [1, 4]: 0 n (%) | Best overall response: NE [1, 4]: 0 n (%) | Best overall response: Non-CR/non-PD [1, 4]: 0 n (%) | Best overall response: PD [1, 4]: 5 (31.3) n (%) | Best overall response: PR [1, 4]: 1 (6.3) n (%) | Best overall response: SD [1, 4]: 10 (62.5) n (%) | DCR (CR + PR + SD + non-CR/non-PD) [1, 4]: 11 (68.8) n (%) | RR (CR + PR) [1, 4]: 1 (6.3) n (%) | Best overall response: CR [1, 5]: 0 n (%) | Best overall response: NE [1, 5]: 0 n (%) | Best overall response: Non-CR/non-PD [1, 5]: 0 n (%) | Best overall response: PD [1, 5]: 1 (14.3) n (%) | Best overall response: PR [1, 5]: 0 n (%) | Best overall response: SD [1, 5]: 6 (85.7) n (%) | DCR (CR + PR + SD + non-CR/non-PD) [1, 5]: 6 (85.7) n (%) | RR (CR + PR) [1, 5]: 0 n (%) | Best overall response: CR [1, 6]: 0 n (%) | Best overall response: NE [1, 6]: 0 n (%) | Best overall response: Non-CR/non-PD [1, 6]: 0 n (%) | Best overall response: PD [1, 6]: 12 (60.0) n (%) | Best overall response: PR [1, 6]: 3 (15.0) n (%) | Best overall response: SD [1, 6]: 5 (25.0) n (%) | DCR (CR + PR + SD + non-CR/non-PD) [1, 6]: 8 (40.0) n (%) | RR (CR + PR) [1, 6]: 3 (15.0) n (%) | Confirmed PR ([1]; SAP cohort 1 (endometrial cancer with PIK3CA mutation), 1 of 16 patients): 6.3% | DCR ([1]; SAP cohort 2): 85.7% | DCR ([1]; SAP cohort 3): 40.0% | Confirmed PR ([1]; SAP cohort 3 (ovarian clear cell carcinoma), 3 of 20 patients): 15.0% | DCR ([1]; SAP, cohort 1): 68.8% | Best overall response: CR ([1]; Total N = 65): 0 n (%) | Best overall response: NE ([1]; Total N = 65): 0 n (%) | Best overall response: Non-CR/non-PD ([1]; Total N = 65): 0 n (%) | Best overall response: PD ([1]; Total N = 65): 36 (55.4) n (%) | Best overall response: PR ([1]; Total N = 65): 4 (6.2) n (%) | Best overall response: SD ([1]; Total N = 65): 25 (38.5) n (%) | DCR (CR + PR + SD + non-CR/non-PD) ([1]; Total N = 65): 29 (44.6) n (%) | RR (CR + PR) ([1]; Total N = 65): 4 (6.2) n (%) | DCR ([1]; dose level 2 in the DEP): 100%
